Test results taken from patent publication US20260132165A1, “MODIFIED NUCLEOSIDE ANALOGUE AND USE THEREOF, AND NUCLEOSIDE ANALOGUE-CONTAINING DOUBLE-STRANDED OLIGONUCLEOTIDE AND USE THEREOF” (RIGERNA THERAPEUTICS (BEIJING) CO., LTD., priority 2023, published 2026).

How the values were obtained:
Assay type in all cases: in vivo, C57BL/6j mice
target gene SOD1 [1] = assay: Test Example 9: inhibitory activity of lipid conjugated siRNA sequences on SOD1 in mouse muscle tissues; conditions: D14; for Diaphragm % Mean value of inhibition rate / Heart % Mean value of inhibition rate / Left quadriceps muscle % Mean value of inhibition rate: tail vein injection 5 mg/kg; for inhibitory activity compared with the NM200 conjugated reference sequence RZ899076: heart tissues; for inhibitory activity compared with the NM200 conjugated reference sequence RZ899076 / inhibitory action on the left quadriceps muscle and diaphragm: tail vein 5 mg/kg; for Left quadriceps muscle % Mean value of inhibition rate: left hind leg quadriceps muscle
Experimental: (§1) RNA extraction: the above tissue samples were taken out from the RNAlater, and smashed for 60 s in Tissuelyser type II full-automatic tissue homogenizer, and total RNAs of various tissue samples were extracted using the full-automatic nucleic acid extraction instrument and the nucleic acid extraction kit from Zhejiang Hanwei Science and Technology Co. Ltd. according to methods described in instructions.
(§2) Reverse transcription reaction: 1 μg of the extracted total RNAs of the tissue samples were taken, and configured into 20 μL of reverse transcription system according to a method described in kit instructions by using a reverse transcription kit (Reverse Transcription System, A3500) from Promega Corporation and selecting Oligo (dT)15 reverse transcription primers, and the reverse transcription reaction was completed. After the reaction was ended, 80 μL of RNase-Free water was added into the reverse transcription system to provide cDNA solution for Real-time PCR detection.
(§3) Real-time PCR detection: 20 μL of Real-time PCR reaction system per PCR detection well was configured according to a method described in kit instructions using SYBR™ Select Master Mix (Catalog number: 4472908) reagent from ABI company. Each detection system contained 5 μL of cDNA template obtained from the above reverse transcription reaction, 10 μL of SYBR™ Select Master Mix, 0.5 μL of 10 μM upstream primers, 0.5 μL of 10 μM downstream primers, and 4 μL of RNase-Free H2O. The configured reaction system was subjected to Real-time PCR amplification on ABI StepOnePlus PCR instrument by a three-step method, wherein an amplification procedure was pre-denaturation at 95° C. for 10 min, then denaturation at 95° C. for 30 s, annealing at 60° C. for 30 s, and extension at 72° C. for 30 s; and processes of denaturation, annealing, and extension were repeated for 40 cycles. Gene expression differences were calculated by the ΔΔCt method after completion of the procedure.
(§4) In the real-time fluorescence quantitative PCR method, relative quantitative calculation of remaining expression level and inhibition rate of gene mRNA of interest in various test groups was performed by the ΔΔCt method, and the calculation method is as follows:
(§5) The present test example evaluated, by an evaluation method for inhibitory activity on a target gene in mice, the inhibitory activity of siRNA sequence RZ899090 with the sense strand with the NM073 conjugation at Position 4, siRNA sequence RZ899091 with the sense strand with the NM074 conjugation at Position 4, siRNA sequence RZ899078 with the sense strand with the NM202 conjugation at Position 6 and siRNA reference sequence RZ899093 with the sense strand with the Uhd conjugation at Position 4, siRNA reference sequence RZ899076 with the sense strand with the NM200 conjugation at Position 4 on the target gene SOD1 of interest in muscle tissues in different parts of mice.
(§6) 6-8 Week-old C57BL/6j mice were randomly grouped by body weight, 5 per group, 6 groups in total. Mice in each group were dosed with the above siRNA conjugates by tail vein injection, with an administration dose of 5 mg/kg per mouse, and an administration volume of 150 μL. PBS control group was administered with the same volume of siRNA conjugate-free PBS solution. The day of administration was recorded as D0, and 5 mice in each group were sacrificed on D14 after administration. Tissues such as left hind leg quadriceps muscle, diaphragm, and heart tissues were respectively taken and stored in the RNAlater. RNA extraction, reverse transcription, and real-time fluorescence quantitative detection were performed on various tissues according to the above method, and gene expression differences were calculated by the above ΔΔCt method.

target gene SOD1 [2] = assay: Test Example 8: inhibitory activity on target gene SOD1 in adipose tissues in different parts of mice; conditions: D14; for Subcutaneous fat % Mean value of inhibition rate: abdominal subcutaneous fat; for Subcutaneous fat % Mean value of inhibition rate / Brown fat on back % Mean value of inhibition rate / Paragonadal fat % Mean value of inhibition rate: tail vein injection 5 mg/kg; for inhibitory activity compared with the NM200 conjugated reference sequence RZ899076: paragonadal fat and brown fat on back; for inhibitory activity compared with the NM200 conjugated reference sequence RZ899076 / inhibitory action on the target gene compared with RZ899076: tail vein 5 mg/kg; for inhibitory action on the target gene compared with RZ899076: subcutaneous fat
Experimental: as §1, §2, §3, §4
as §5, with “SOD1 in adipose tissues” for “SOD1”, “in” for “in muscle tissues in different parts of”
as §6, with “Paragonadal fat, abdominal subcutaneous fat,” for “Tissues such as left hind leg quadriceps muscle, diaphragm,”, “brown fat on back” for “heart tissues”, “taken.” for “taken and stored in the RNAlater.”

target gene SOD1 [3] = assay: Test Example 4: lipid conjugated siRNA sequences with different carbon chain lengths, SOD1 in mouse brain, lateral ventricle administration; design: Right hemisphere Mean value of inhibition rate / Left hemisphere Mean value of inhibition rate: unit not given here; conditions: D5; for inhibitory activity compared with the vector-free siRNA sequence RX599002: left and right hemisphere, lateral ventricle 150 μg per mouse; for Left hemisphere Mean value of inhibition rate: left hemisphere (non-administration side); for Left hemisphere Mean value of inhibition rate / Right hemisphere Mean value of inhibition rate: lateral ventricle; for Left hemisphere Mean value of inhibition rate / activity compared with Uhd conjugated reference sequence RZ899093 and NM200 (C22) conjugated reference sequence RZ899076 / Right hemisphere Mean value of inhibition rate: 150 μg per mouse; for activity compared with Uhd conjugated reference sequence RZ899093 and NM200 (C22) conjugated reference sequence RZ899076: right hemisphere (administration side) and left hemisphere (non-administration side); for Right hemisphere Mean value of inhibition rate: right hemisphere (administration side)
Experimental: 6-8 Week-old C57BL/6j mice were randomly grouped by body weight. Mice in each group were administered with siRNA by lateral ventricle administration, with an administration dose per mouse depending on a specific test. Taking Bregma in mouse brain as point 0 (origin), coordinates of right ventricle were found using the cerebral stereotaxic apparatus and position was marked on surface of skull (position of lateral ventricle was AP (anteroposterior, bregma anterior and posterior): −0.58 mm, ML (mediolateral, left and right of middle raphe): −1.2 mm, DV (dorsoventral, up and down cerebral dura mater plane): −2.2 mm). A dental electric drill was used to drill in the skull above a position of interest, and then medicament was injected into the lateral ventricle by a micro-dosing pump, wherein a total injection volume was 5 μL, and injection duration was 10 min. Needle was retained for 5 min after completion of injection, and then slowly withdrawn. Afterwards, needle hole was sealed with biomedical glue, and then head skin was adhered. After animals woke up, the animals were returned back to animal house and further fed. PBS control group was administered with the same volume of siRNA-free PBS solution. The day of administration was recorded as 0 day (D0), and the mice were sacrificed at observation point after the administration. Different parts of brain region were respectively taken and stored in the RNAlater.
as §1, §2, §3
In the real-time fluorescence quantitative PCR method, relative quantitative calculation of remaining expression level and inhibition rate of gene mRNA of interest in various test groups was performed by the ΔΔCt method, and the calculation method is as follows: […]

Substance | Diaphragm % Mean value of inhibition rate (target gene SOD1 [1]) [%] | inhibitory activity compared with the NM200 conjugated reference sequence RZ899076 (target gene SOD1 [1]) | Heart % Mean value of inhibition rate (target gene SOD1 [1]) [%] | Left quadriceps muscle % Mean value of inhibition rate (target gene SOD1 [1]) [%] | inhibitory action on the left quadriceps muscle and diaphragm (target gene SOD1 [1]) | Subcutaneous fat % Mean value of inhibition rate (target gene SOD1 [2]) [%] | Brown fat on back % Mean value of inhibition rate (target gene SOD1 [2]) [%] | inhibitory activity compared with the NM200 conjugated reference sequence RZ899076 (target gene SOD1 [2]) | Paragonadal fat % Mean value of inhibition rate (target gene SOD1 [2]) [%] | inhibitory action on the target gene compared with RZ899076 (target gene SOD1 [2]) | inhibitory activity compared with the vector-free siRNA sequence RX599002 (target gene SOD1 [3]) | Left hemisphere Mean value of inhibition rate (target gene SOD1 [3]) | activity compared with Uhd conjugated reference sequence RZ899093 and NM200 (C22) conjugated reference sequence RZ899076 (target gene SOD1 [3]) | Right hemisphere Mean value of inhibition rate (target gene SOD1 [3])
RZ899091: siRNA sequence with the sense strand with the NM074 (C20) conjugation at Position 4; SEQ ID NO: 16 / 23 (sense UUUNAAUCCUCACUCUAAA; antisense UUUAGAGUGAGGAUUAAAAUG; NM074 (C20) conjugate at sense position 4; modified_base 1..2 OTHER; 2'-methoxy and 5'-thiophosphate modified nucleotides; modified_base 3 OTHER; 2'-methoxy modified nucleotide; modified_base 4 OTHER; n is the synthetic nucleotide analog NM074 as described in the disclosure.; modified_base 5..6 OTHER; 2'-methoxy modified nucleotides; modified_base 7..10 OTHER; 2'-fluoro modified nucleotides; modified_base 11..19 OTHER; 2'-methoxy modified ; modified_base 1 OTHER; 2'-methoxy and 5'-thiovinylphosphonate modified nucleotide; modified_base 2 OTHER; 2'-fluoro and 5'-thiophosphate modified …) | 39.22 | superior inhibitory activity | 76.73 | 33.02 | certain inhibitory action | 67.17 | 80.97 | equivalent or superior inhibitory activity | 75.20 | substantially comparable | superior inhibitory activity | 70.41 | substantially comparable or superior activity | 82.32
RZ899090: siRNA sequence with the sense strand with the NM073 (C18) conjugation at Position 4; SEQ ID NO: 15 / 23 (sense UUUNAAUCCUCACUCUAAA; antisense UUUAGAGUGAGGAUUAAAAUG; NM073 (C18) conjugate at sense position 4; modified_base 1..2 OTHER; 2'-methoxy and 5'-thiophosphate modified nucleotides; modified_base 3 OTHER; 2'-methoxy modified nucleotide; modified_base 4 OTHER; n is the nucleotide analog NM073 as described in the disclosure.; modified_base 5..6 OTHER; 2'-methoxy modified nucleotides; modified_base 7..10 OTHER; 2'-fluoro modified nucleotides; modified_base 11..19 OTHER; modified_base 1 OTHER; 2'-methoxy and 5'-thiovinylphosphonate modified nucleotide; modified_base 2 OTHER; 2'-fluoro and 5'-thiophosphate modified nucleotide; modified_base 3..5 OTHER; …) | 43.77 | superior inhibitory activity | 67.88 | 33.16 | certain inhibitory action | 71.07 | 81.60 | equivalent or superior inhibitory activity | 67.09 | substantially comparable | superior inhibitory activity | 67.87 | substantially comparable or superior activity | 78.49
